Measurements reported in ChEMBL document CHEMBL1201862, “PubChem BioAssay data set” (2004).
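Each compound was tested at five concentrations against cells in 96-well plates for 48 hours. The concentration for 50% growth inhibition is given as GI50.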 Active and inactive are the calls of the source. Cut-off read from the data, not from the text of the source: active = GI50 up to about 1.1 µM and inactive = higher.

What was measured:
Experiment in all cases: NCI tumour cell line growth inhibition, 48 h
SNB-75 = system: SNB-75
ACHN = system: ACHN
DMS-114 = system: DMS-114
HL-60 = system: HL-60
Malme-3M = system: Malme-3M
OVCAR-8 = system: OVCAR-8
M14 = system: M14
HCT-116 = system: HCT-116
SK-OV-3 = system: SK-OV-3
LOX IMVI = system: LOX IMVI
SNB-19 = system: SNB-19
OVCAR-3 = system: OVCAR-3
OVCAR-5 = system: OVCAR-5
SN12C = system: SN12C
SK-MEL-28 = system: SK-MEL-28
TK-10 = system: TK-10
T47D = system: T47D
MDA-N = system: MDA-N
Hs-578T = system: Hs-578T
SR = system: SR

Measured: GI50

CC12CCC(=O)N1[C@@H](c1ccccc1)[C@@H](c1ccccc1)O2 (some centres not stated)
inactive: SNB-75 > 100 µM | ACHN > 100 µM | DMS-114 > 100 µM | HL-60 > 100 µM | Malme-3M > 100 µM | OVCAR-8 > 100 µM | M14 > 100 µM | HCT-116 > 100 µM | SK-OV-3 68.9 µM | LOX IMVI > 100 µM | SNB-19 > 100 µM | OVCAR-3 > 100 µM | OVCAR-5 > 100 µM | SN12C > 100 µM

COc1cc2c(cc1OC)C(=O)Cc1ccc(OC)c(OC)c1CN(C)CC2
inactive: SNB-75 > 100 µM | ACHN 27.7 µM | DMS-114 > 100 µM | SK-MEL-28 > 100 µM | TK-10 > 100 µM | Malme-3M > 100 µM | OVCAR-8 > 100 µM | M14 > 100 µM | HCT-116 > 100 µM | SK-OV-3 > 100 µM | LOX IMVI > 100 µM | SNB-19 > 100 µM | OVCAR-3 > 100 µM | OVCAR-5 > 100 µM | SN12C > 100 µM

CN1c2ccccc2N(C)C2C1N(C)c1ccccc1N2C (configuration not stated)
inactive: SNB-75 6.9 µM | ACHN 40.1 µM | DMS-114 5.71 µM | SK-MEL-28 4.69 µM | HL-60 2.29 µM | TK-10 36.9 µM | Malme-3M 16.6 µM | OVCAR-8 18.6 µM | M14 18.2 µM | HCT-116 12.7 µM | LOX IMVI 5.25 µM | SNB-19 18.8 µM | OVCAR-3 8.71 µM | OVCAR-5 59.3 µM | SN12C 20 µM

NC1=NCC(CN2CCOCC2)O1 (configuration not stated)
inactive: SNB-75 62.2 µM | ACHN > 100 µM | SK-MEL-28 > 100 µM | HL-60 > 100 µM | TK-10 > 100 µM | Malme-3M > 100 µM | OVCAR-8 > 100 µM | M14 > 100 µM | HCT-116 > 100 µM | SK-OV-3 > 100 µM | T47D > 100 µM | MDA-N > 100 µM | LOX IMVI > 100 µM | Hs-578T > 100 µM | SNB-19 > 100 µM | OVCAR-3 > 100 µM | SR > 100 µM | OVCAR-5 > 100 µM | SN12C > 100 µM

COC1C(CN[N+](=O)CC2OC3OC(C)(C)OC3C2OC)OC2OC(C)(C)OC21 (configuration not stated)
inactive: SNB-75 > 100 µM | ACHN > 100 µM | DMS-114 > 100 µM | SK-MEL-28 > 100 µM | HL-60 > 100 µM | TK-10 > 100 µM | Malme-3M > 100 µM | OVCAR-8 > 100 µM | M14 > 100 µM | HCT-116 > 100 µM | SK-OV-3 > 100 µM | LOX IMVI > 100 µM | SNB-19 > 100 µM | OVCAR-3 > 100 µM | OVCAR-5 > 100 µM | SN12C > 100 µM

N#Cc1cccc(N2C(=O)c3ccc(C(=O)c4ccc5c(c4)C(=O)N(c4cccc(C#N)c4)C5=O)cc3C2=O)c1
inactive: SNB-75 35.6 µM | DMS-114 > 100 µM | HL-60 > 100 µM | TK-10 > 100 µM | Malme-3M > 100 µM | OVCAR-8 > 100 µM | M14 > 100 µM | HCT-116 > 100 µM | SK-OV-3 > 100 µM | LOX IMVI > 100 µM | SNB-19 > 100 µM | OVCAR-3 > 100 µM | OVCAR-5 > 100 µM | SN12C > 100 µM

O=c1cc(-c2ccccc2)oc2ccc(Oc3nnnn3-c3ccccc3)cc12
inactive: SNB-75 47.3 µM | ACHN > 64.4 µM | SK-MEL-28 > 55.8 µM | HL-60 > 100 µM | TK-10 > 100 µM | Malme-3M > 100 µM | OVCAR-8 42 µM | M14 > 100 µM | HCT-116 > 81.1 µM | SK-OV-3 > 65.3 µM | T47D 12.1 µM | MDA-N 5.15 µM | LOX IMVI > 42.7 µM | Hs-578T 28.3 µM | SNB-19 33.2 µM | OVCAR-3 > 100 µM | SR > 33.1 µM | OVCAR-5 > 100 µM | SN12C > 42.3 µM

O=C1Oc2ccccc2C(=O)/C1=C\Nc1nc(-c2ccccc2)cs1
inactive: SNB-75 5.86 µM | ACHN 11.2 µM | SK-MEL-28 16.1 µM | HL-60 1.45 µM | TK-10 2.21 µM | Malme-3M 11.6 µM | OVCAR-8 8 µM | M14 4.53 µM | HCT-116 4.95 µM | SK-OV-3 33.4 µM | T47D 15.9 µM | MDA-N 4.85 µM | LOX IMVI 5.2 µM | Hs-578T 15.7 µM | SNB-19 19.9 µM | OVCAR-3 14.3 µM | SR 2.01 µM | OVCAR-5 19 µM | SN12C 7.08 µM

NC(CCCC(N)P(=O)(O)O)P(=O)(O)O (configuration not stated)
inactive: SNB-75 > 100 µM | ACHN > 100 µM | DMS-114 > 100 µM | SK-MEL-28 > 100 µM | TK-10 > 100 µM | Malme-3M > 100 µM | OVCAR-8 > 100 µM | M14 > 100 µM | HCT-116 > 100 µM | SK-OV-3 > 100 µM | LOX IMVI > 100 µM | OVCAR-3 > 100 µM | SN12C > 100 µM

CC(C)=CCC[C@](C)(O[C@@H]1O[C@H](CO)[C@@H](O)[C@H](O)[C@H]1O)[C@H]1CC[C@]2(C)[C@@H]1[C@H](O)C[C@@H]1[C@@]3(C)CC[C@H](O)C(C)(C)[C@@H]3[C@@H](O[C@@H]3O[C@H](CO)[C@@H](O)[C@H](O)[C@H]3O)C[C@]12C [GINSENOSIDE RG1]
inactive: SNB-75 > 100 µM | ACHN > 100 µM | SK-MEL-28 > 100 µM | HL-60 > 100 µM | TK-10 > 100 µM | Malme-3M > 100 µM | OVCAR-8 > 100 µM | M14 > 100 µM | HCT-116 > 100 µM | SK-OV-3 > 100 µM | T47D > 100 µM | MDA-N > 100 µM | LOX IMVI > 100 µM | Hs-578T > 100 µM | SNB-19 > 100 µM | OVCAR-3 > 100 µM | SR > 100 µM | OVCAR-5 > 100 µM | SN12C > 100 µM

COC(=O)NN1C(C)=C(C(=O)OC)C2(CCOC2=O)C1(C)O (configuration not stated)
inactive: ACHN > 100 µM | DMS-114 > 100 µM | SK-MEL-28 > 100 µM | HL-60 > 100 µM | TK-10 > 100 µM | Malme-3M > 100 µM | OVCAR-8 > 100 µM | M14 > 100 µM | HCT-116 > 100 µM | SK-OV-3 > 100 µM | LOX IMVI > 100 µM | SNB-19 > 100 µM | OVCAR-3 > 100 µM | OVCAR-5 > 100 µM | SN12C > 100 µM

Cc1cccc(NC(=S)Nc2cccc(Cl)c2)n1
inactive: SNB-75 > 54 µM | ACHN > 100 µM | SK-MEL-28 > 100 µM | HL-60 > 100 µM | TK-10 > 100 µM | Malme-3M > 100 µM | OVCAR-8 > 80.9 µM | M14 > 100 µM | HCT-116 > 100 µM | SK-OV-3 41.9 µM | T47D > 100 µM | MDA-N > 100 µM | LOX IMVI > 100 µM | Hs-578T > 65.3 µM | SNB-19 > 60.4 µM | OVCAR-3 > 100 µM | SR > 100 µM | OVCAR-5 > 100 µM | SN12C > 100 µM

CC1C[C@@H]2C(=O)NC(=O)[C@@H]2c2c1c1ccccc1n2C (some centres not stated)
inactive: SNB-75 > 100 µM | DMS-114 > 100 µM | SK-MEL-28 > 100 µM | HL-60 > 100 µM | TK-10 > 100 µM | Malme-3M > 100 µM | OVCAR-8 > 100 µM | M14 > 100 µM | SK-OV-3 > 100 µM | LOX IMVI > 100 µM | SNB-19 > 100 µM | OVCAR-3 > 100 µM | SN12C > 100 µM

O=C1CC(O)(c2ccccc2)C(c2ccccc2)=C1c1ccccc1 (configuration not stated)
inactive: SNB-75 27.8 µM | ACHN 38 µM | DMS-114 26.2 µM | SK-MEL-28 39.8 µM | HL-60 24.3 µM | TK-10 81.5 µM | Malme-3M 46 µM | OVCAR-8 47 µM | M14 35.4 µM | SK-OV-3 > 100 µM | LOX IMVI 38.2 µM | OVCAR-3 29.4 µM | OVCAR-5 > 100 µM | SN12C 38.6 µM

O=C1C[C@H](COCc2ccccc2)NC(=O)C[C@H](COCc2ccccc2)NC(=O)C[C@H](COCc2ccccc2)N1
inactive: SNB-75 2.55 µM | ACHN 16.4 µM | SK-MEL-28 > 100 µM | HL-60 92.7 µM | TK-10 18.1 µM | Malme-3M > 100 µM | OVCAR-8 > 100 µM | M14 > 100 µM | HCT-116 32.4 µM | SK-OV-3 19.5 µM | T47D 62.2 µM | MDA-N > 100 µM | LOX IMVI > 100 µM | Hs-578T 39.9 µM | SNB-19 18.6 µM | OVCAR-3 80.5 µM | SR 42.4 µM | OVCAR-5 > 100 µM | SN12C > 100 µM

COc1ccc(/C(=N/NC(N)=O)C2(O)C(=O)Nc3ccc([N+](=O)[O-])cc32)cc1 (configuration not stated)
inactive: SNB-75 20.6 µM | ACHN 16.6 µM | DMS-114 19.7 µM | SK-MEL-28 20 µM | Malme-3M > 10 µM | OVCAR-8 22.3 µM | M14 15.3 µM | HCT-116 14.9 µM | SK-OV-3 > 100 µM | SNB-19 > 10 µM | OVCAR-3 18.1 µM | SR 17.4 µM | OVCAR-5 31.5 µM | SN12C > 10 µM
